Measurements taken from patent publication US12453709B2, “Compositions and methods for treating autism” (priority 2013, dated 2025).
Marks after values point to notes of the source that are not given here.

Tested on: male patients diagnosed with autism
Experiment: Study HT 02-121: adverse events
Assay type: in vivo, human
Protocol: The purpose of this clinical study (referred to herein as “Study HT 02-121”; i.e., Example 6) was to determine whether L1-79 was a well-tolerated and clinically useful agent for the treatment of ASD, and to assess the PK and pharmacodynamics (PD) of four weeks of TID dosing with L1-79. […] The first cohort of 20 patients was comprised of three groups of patients: The first group of five patients received open-label L1-79 100 mg TID and underwent PK and EKG assessments. […] The PK and safety data from the open-label L1-79 100 mg TID group was submitted to FDA for review and acceptance before the second cohort was enrolled. The second cohort was procedurally identical to the first. The second cohort of 20 patients was comprised of the same three groups of patients but a dose of 200 mg TID was used instead of 100 mg TID. The key inclusion criteria were as follows: […] Safety was the primary endpoint of the study. The following safety endpoints were assessed: ECGs, physical exams, laboratory evaluations (hematology, chemistry and urinalysis), vital signs, including orthostatic blood pressure, adverse events (AEs) and concomitant medications. The incidence of AEs by primary system organ class and preferred term is presented in Table 7, and a listing of the AEs reported during the study is presented in Table 8. All AEs were mild to moderate in intensity and self-limited.

For `CC(N)(Cc1ccc(O)cc1)C(=O)O` (racemic) [L1-79, α-methyl-DL-tyrosine], the safety and tolerability (28-day treatment period) was “safe and well tolerated”, the “Incidence of AEs: Agitation” value (DB 100 mg TID, N = 10) was 0[0] n(%) and the “Incidence of AEs: All primary SOC” value (DB 100 mg TID, N = 10) was 1(10.0) n(%). The “Incidence of AEs: Amylase †” value (DB 100 mg TID, N = 10) was 0[0] n(%), the “Incidence of AEs: Anxiety” value (DB 100 mg TID, N = 10) was 0[0] n(%) and the “Incidence of AEs: Blood TSH †” value (DB 100 mg TID, N = 10) was 0[0] n(%). The “Incidence of AEs: Confusional state” value (DB 100 mg TID, N = 10) was 0[0] n(%), the “Incidence of AEs: Cough” value (DB 100 mg TID, N = 10) was 0[0] n(%) and the “Incidence of AEs: Crystal urine present” value (DB 100 mg TID, N = 10) was 0[0] n(%). For the same compound, the “Incidence of AEs: Diarrhoea” value (DB 100 mg TID, N = 10) was 0[0] n(%), the “Incidence of AEs: Ear infection” value (DB 100 mg TID, N = 10) was 0[0] n(%) and the “Incidence of AEs: Fatigue” value (DB 100 mg TID, N = 10) was 0[0] n(%). The “Incidence of AEs: GI disorders” value (DB 100 mg TID, N = 10) was 0[0] n(%), the “Incidence of AEs: General disorders & administration site conditions” value (DB 100 mg TID, N = 10) was 0[0] n(%) and the “Incidence of AEs: Generalized tonic-clonic seizure” value (DB 100 mg TID, N = 10) was 0[0] n(%). The “Incidence of AEs: Immune system disorders” value (DB 100 mg TID, N = 10) was 0[0] n(%), the “Incidence of AEs: Infections and infestations” value (DB 100 mg TID, N = 10) was 0[0] n(%) and the “Incidence of AEs: International self-injury” value (DB 100 mg TID, N = 10) was 0[0] n(%). For the same compound, the “Incidence of AEs: Investigations” value (DB 100 mg TID, N = 10) was 0[0] n(%), the “Incidence of AEs: Irritability” value (DB 100 mg TID, N = 10) was 0[0] n(%) and the “Incidence of AEs: Nasopharyngitis” value (DB 100 mg TID, N = 10) was 0[0] n(%). The “Incidence of AEs: Nervous system disorders” value (DB 100 mg TID, N = 10) was 1(10.0) n(%), the “Incidence of AEs: Otitis externa” value (DB 100 mg TID, N = 10) was 0[0] n(%) and the “Incidence of AEs: Psychiatric disorders” value (DB 100 mg TID, N = 10) was 0[0] n(%). The “Incidence of AEs: Pyrexia” value (DB 100 mg TID, N = 10) was 0[0] n(%), the “Incidence of AEs: Renal and urinary disorders” value (DB 100 mg TID, N = 10) was 0[0] n(%) and the “Incidence of AEs: Respiratory, thoracic & mediastinal disorders” value (DB 100 mg TID, N = 10) was 0[0] n(%). For the same compound, the “Incidence of AEs: Seasonal allergy” value (DB 100 mg TID, N = 10) was 0[0] n(%), the “Incidence of AEs: Syncope” value (DB 100 mg TID, N = 10) was 1(10.0) n(%) and the “Incidence of AEs: Urinary incontinence” value (DB 100 mg TID, N = 10) was 0[0] n(%). For the same compound, the “Number of AE events: All primary SOC” value (DB 100 mg TID, N = 10) was 1 [e], the “Number of AE events: Nervous system disorders” value (DB 100 mg TID, N = 10) was 1 [e] and the “Number of AE events: Syncope” value (DB 100 mg TID, N = 10) was 1 [e]. The “Incidence of AEs: Agitation” value (DB 200 mg TID, N = 11) was 0[0] n(%), the “Incidence of AEs: All primary SOC” value (DB 200 mg TID, N = 11) was 6(54.5) n(%) and the “Incidence of AEs: Amylase †” value (DB 200 mg TID, N = 11) was 0[0] n(%). The “Incidence of AEs: Anxiety” value (DB 200 mg TID, N = 11) was 1(9.1) n(%), the “Incidence of AEs: Blood TSH †” value (DB 200 mg TID, N = 11) was 1(9.1) n(%) and the “Incidence of AEs: Confusional state” value (DB 200 mg TID, N = 11) was 0[0] n(%). For the same compound, the “Incidence of AEs: Cough” value (DB 200 mg TID, N = 11) was 0[0] n(%), the “Incidence of AEs: Crystal urine present” value (DB 200 mg TID, N = 11) was 2(18.2) n(%) and the “Incidence of AEs: Diarrhoea” value (DB 200 mg TID, N = 11) was 3(27.3) n(%). The “Incidence of AEs: Ear infection” value (DB 200 mg TID, N = 11) was 1(9.1) n(%), the “Incidence of AEs: Fatigue” value (DB 200 mg TID, N = 11) was 0[0] n(%) and the “Incidence of AEs: GI disorders” value (DB 200 mg TID, N = 11) was 3(27.3) n(%). The “Incidence of AEs: General disorders & administration site conditions” value (DB 200 mg TID, N = 11) was 0[0] n(%), the “Incidence of AEs: Generalized tonic-clonic seizure” value (DB 200 mg TID, N = 11) was 1(9.1) n(%) and the “Incidence of AEs: Immune system disorders” value (DB 200 mg TID, N = 11) was 0[0] n(%). For the same compound, the “Incidence of AEs: Infections and infestations” value (DB 200 mg TID, N = 11) was 2(18.2) n(%), the “Incidence of AEs: International self-injury” value (DB 200 mg TID, N = 11) was 0[0] n(%) and the “Incidence of AEs: Investigations” value (DB 200 mg TID, N = 11) was 3(27.3) n(%). The “Incidence of AEs: Irritability” value (DB 200 mg TID, N = 11) was 0[0] n(%), the “Incidence of AEs: Nasopharyngitis” value (DB 200 mg TID, N = 11) was 0[0] n(%) and the “Incidence of AEs: Nervous system disorders” value (DB 200 mg TID, N = 11) was 1(9.1) n(%). For the same compound, the “Incidence of AEs: Otitis externa” value (DB 200 mg TID, N = 11) was 1(9.1) n(%), the “Incidence of AEs: Psychiatric disorders” value (DB 200 mg TID, N = 11) was 1(9.1) n(%) and the “Incidence of AEs: Pyrexia” value (DB 200 mg TID, N = 11) was 0[0] n(%). The “Incidence of AEs: Renal and urinary disorders” value (DB 200 mg TID, N = 11) was 0[0] n(%), the “Incidence of AEs: Respiratory, thoracic & mediastinal disorders” value (DB 200 mg TID, N = 11) was 0[0] n(%) and the “Incidence of AEs: Seasonal allergy” value (DB 200 mg TID, N = 11) was 0[0] n(%). The “Incidence of AEs: Syncope” value (DB 200 mg TID, N = 11) was 0[0] n(%), the “Incidence of AEs: Urinary incontinence” value (DB 200 mg TID, N = 11) was 0[0] n(%) and the “Number of AE events: All primary SOC” value (DB 200 mg TID, N = 11) was 10 [e]. For the same compound, the “Number of AE events: Anxiety” value (DB 200 mg TID, N = 11) was 1 [e], the “Number of AE events: Blood TSH †” value (DB 200 mg TID, N = 11) was 1 [e] and the “Number of AE events: Crystal urine present” value (DB 200 mg TID, N = 11) was 2 [e]. For the same compound, the “Number of AE events: Diarrhoea” value (DB 200 mg TID, N = 11) was 3 [e], the “Number of AE events: Ear infection” value (DB 200 mg TID, N = 11) was 1 [e] and the “Number of AE events: GI disorders” value (DB 200 mg TID, N = 11) was 3 [e]. For the same compound, the “Number of AE events: Generalized tonic-clonic seizure” value (DB 200 mg TID, N = 11) was 1 [e], the “Number of AE events: Infections and infestations” value (DB 200 mg TID, N = 11) was 2 [e] and the “Number of AE events: Investigations” value (DB 200 mg TID, N = 11) was 3 [e]. The “Number of AE events: Nervous system disorders” value (DB 200 mg TID, N = 11) was 1 [e], the “Number of AE events: Otitis externa” value (DB 200 mg TID, N = 11) was 1 [e] and the “Number of AE events: Psychiatric disorders” value (DB 200 mg TID, N = 11) was 1 [e]. The “Incidence of AEs: Agitation” value (OL 100 mg TID, N = 5) was 0[0] n(%), the “Incidence of AEs: All primary SOC” value (OL 100 mg TID, N = 5) was 2(40.0) n(%) and the “Incidence of AEs: Amylase †” value (OL 100 mg TID, N = 5) was 0[0] n(%). For the same compound, the “Incidence of AEs: Anxiety” value (OL 100 mg TID, N = 5) was 1(20.0) n(%), the “Incidence of AEs: Blood TSH †” value (OL 100 mg TID, N = 5) was 0[0] n(%) and the “Incidence of AEs: Confusional state” value (OL 100 mg TID, N = 5) was 1(20.0) n(%). For the same compound, the “Incidence of AEs: Cough” value (OL 100 mg TID, N = 5) was 0[0] n(%), the “Incidence of AEs: Crystal urine present” value (OL 100 mg TID, N = 5) was 0[0] n(%) and the “Incidence of AEs: Diarrhoea” value (OL 100 mg TID, N = 5) was 0[0] n(%). The “Incidence of AEs: Ear infection” value (OL 100 mg TID, N = 5) was 0[0] n(%), the “Incidence of AEs: Fatigue” value (OL 100 mg TID, N = 5) was 0[0] n(%) and the “Incidence of AEs: GI disorders” value (OL 100 mg TID, N = 5) was 0[0] n(%). The “Incidence of AEs: General disorders & administration site conditions” value (OL 100 mg TID, N = 5) was 0[0] n(%), the “Incidence of AEs: Generalized tonic-clonic seizure” value (OL 100 mg TID, N = 5) was 0[0] n(%) and the “Incidence of AEs: Immune system disorders” value (OL 100 mg TID, N = 5) was 0[0] n(%). For the same compound, the “Incidence of AEs: Infections and infestations” value (OL 100 mg TID, N = 5) was 0[0] n(%), the “Incidence of AEs: International self-injury” value (OL 100 mg TID, N = 5) was 2(40.0) n(%) and the “Incidence of AEs: Investigations” value (OL 100 mg TID, N = 5) was 0[0] n(%). The “Incidence of AEs: Irritability” value (OL 100 mg TID, N = 5) was 2(40.0) n(%).
